{
  "source": "patent US10758534B2",
  "about": "(Vertex Pharmaceuticals Incorporated, priority 2014, dated 2020)",
  "data": [
    {"molecular_target": "T1, F508del (Homo sapiens, UniProt P13569, DEL508-508)", "T1 construct": "expressed in transfected cells", "T1 sequence (P13569 with tags, fused parts or gaps DEL508-508)": "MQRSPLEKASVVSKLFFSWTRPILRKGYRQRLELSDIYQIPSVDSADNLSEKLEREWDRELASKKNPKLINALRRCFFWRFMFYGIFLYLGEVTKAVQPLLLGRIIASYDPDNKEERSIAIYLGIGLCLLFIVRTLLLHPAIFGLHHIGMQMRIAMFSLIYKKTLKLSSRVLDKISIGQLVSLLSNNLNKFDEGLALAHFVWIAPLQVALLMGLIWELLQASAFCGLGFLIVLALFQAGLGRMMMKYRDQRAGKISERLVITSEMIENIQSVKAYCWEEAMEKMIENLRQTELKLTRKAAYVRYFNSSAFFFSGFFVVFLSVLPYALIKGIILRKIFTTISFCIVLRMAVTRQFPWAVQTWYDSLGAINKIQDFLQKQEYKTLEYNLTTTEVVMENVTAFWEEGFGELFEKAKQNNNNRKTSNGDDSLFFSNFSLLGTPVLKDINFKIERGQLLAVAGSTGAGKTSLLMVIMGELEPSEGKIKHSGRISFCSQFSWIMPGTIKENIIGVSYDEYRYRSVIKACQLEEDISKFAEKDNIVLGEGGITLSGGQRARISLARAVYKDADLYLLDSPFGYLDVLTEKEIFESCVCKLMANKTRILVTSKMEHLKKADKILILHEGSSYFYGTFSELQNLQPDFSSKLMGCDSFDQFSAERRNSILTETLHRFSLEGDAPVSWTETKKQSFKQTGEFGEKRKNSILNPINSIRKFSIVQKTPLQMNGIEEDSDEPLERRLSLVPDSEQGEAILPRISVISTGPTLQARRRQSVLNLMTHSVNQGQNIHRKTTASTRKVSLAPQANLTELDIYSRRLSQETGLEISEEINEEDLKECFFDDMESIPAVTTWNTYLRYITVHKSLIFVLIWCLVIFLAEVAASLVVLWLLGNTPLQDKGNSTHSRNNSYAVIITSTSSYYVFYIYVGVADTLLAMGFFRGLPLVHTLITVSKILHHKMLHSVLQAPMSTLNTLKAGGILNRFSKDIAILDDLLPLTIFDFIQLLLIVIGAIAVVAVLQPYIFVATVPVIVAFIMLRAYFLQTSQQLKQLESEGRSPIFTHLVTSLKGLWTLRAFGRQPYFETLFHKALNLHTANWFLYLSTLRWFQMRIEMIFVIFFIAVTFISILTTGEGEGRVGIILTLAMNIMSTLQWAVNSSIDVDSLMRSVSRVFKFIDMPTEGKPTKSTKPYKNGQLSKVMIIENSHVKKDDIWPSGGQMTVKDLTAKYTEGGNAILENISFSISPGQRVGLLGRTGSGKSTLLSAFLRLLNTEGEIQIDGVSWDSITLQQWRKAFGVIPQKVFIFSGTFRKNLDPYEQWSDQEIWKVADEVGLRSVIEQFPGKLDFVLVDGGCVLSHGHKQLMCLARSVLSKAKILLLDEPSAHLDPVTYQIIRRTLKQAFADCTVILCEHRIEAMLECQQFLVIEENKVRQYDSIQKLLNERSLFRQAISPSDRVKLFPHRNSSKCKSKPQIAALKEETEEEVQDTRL", "assay": "Protocol 2: FRET membrane potential optical assay (VIPR), identification of correction compounds", "type": "cell-based", "conditions": "F508del CFTR modulator activity; compounds of Table 1; read-out: EC30", "method_in_brief": "(§1)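 Single-addition HTS format: F508del-expressing NIH3T3 cells pre-incubated 16 hrs at 37° C. ± compound, with 27° C. culture as positive control. Channel activation by forskolin 10 μM and genistein 20 μM upon switch to gluconate bath, pH 7.4; read-out is FRET-based depolarization signal.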", "units": {"EC30": "nM"}, "values": [
      {"compound": "Cc1c(F)cccc1-c1ccc(C(=O)NS(=O)(=O)c2ccc[nH]c2=O)c(N2C[C@@H](C)CC2(C)C)n1", "note": "[Compound 2491, 6-(3-fluoro-2-methyl-phenyl)-N-[(2-oxo-1H-pyridin-3-yl)sulfonyl]-2-[(4S)-2,2,4-trimethylpyrrolidin-1-yl]pyridine-3-carboxamide]", "EC30": "< 3000"},
      {"compound": "Cc1cc(C)cc(-c2ccc(C(=O)NS(=O)(=O)c3ccc[nH]c3=O)c(N3C[C@@H](C)CC3(C)C)n2)c1", "note": "[Compound 2626, 6-(3,5-dimethylphenyl)-N-[(2-oxo-1H-pyridin-3-yl)sulfonyl]-2-[(4S)-2,2,4-trimethylpyrrolidin-1-yl]pyridine-3-carboxamide]", "EC30": "< 3000"},
      {"compound": "CCOc1cccc(Nc2cccc(S(=O)(=O)NC(=O)c3cccnc3N3CC(C)CC3(C)C)n2)c1", "note": "(stereo not drawn) [Compound 2526, N—[[6-(3-ethoxyanilino)-2-pyridyl]sulfonyl]-2-(2,2,4-trimethylpyrrolidin-1-yl)pyridine-3-carboxamide]", "EC30": "< 3000"},
      {"compound": "CC1CN(c2ncccc2C(=O)NS(=O)(=O)c2cccc(OCC3COc4ccccc4O3)n2)C(C)(C)C1", "note": "(stereo not drawn) [Compound 2115, N—[[6-(2,3-dihydro-1,4-benzodioxin-3-ylmethoxy)-2-pyridyl]sulfonyl]-2-(2,2,4-trimethylpyrrolidin-1-yl)pyridine-3-carboxamide]", "EC30": "< 3000"},
      {"compound": "COc1cccc(-c2ccc(C(=O)NS(=O)(=O)N3CC[C@H](N)C3)c(N3C[C@@H](C)CC3(C)C)n2)c1", "note": "[Compound 2240, N-[(3S)-3-aminopyrrolidin-1-yl]sulfonyl-6-(3-methoxyphenyl)-2-[(4S)-2,2,4-trimethylpyrrolidin-1-yl]pyridine-3-carboxamide]", "EC30": "3000 to 10000"},
      {"compound": "CC1CN(c2ncccc2C(=O)NS(=O)(=O)c2cccc(NCc3cccs3)n2)C(C)(C)C1", "note": "(stereo not drawn) [Compound 2004, N—[[6-(2-thienylmethylamino)-2-pyridyl]sulfonyl]-2-(2,2,4-trimethylpyrrolidin-1-yl)pyridine-3-carboxamide]", "EC30": "< 3000"},
      {"compound": "COc1cc(F)ccc1-c1ccc(C(=O)NS(=O)(=O)c2ccc[nH]c2=O)c(N2C[C@@H](C)CC2(C)C)n1", "note": "[Compound 2356, 6-(4-fluoro-2-methoxy-phenyl)-N-[(2-oxo-1H-pyridin-3-yl)sulfonyl]-2-[(4S)-2,2,4-trimethylpyrrolidin-1-yl]pyridine-3-carboxamide]", "EC30": "< 3000"},
      {"compound": "Cc1cc(-c2cnc(N3CC(C)CC3(C)C)c(C(=O)NS(=O)(=O)c3cccc(N)n3)c2)cc(C(C)(C)C)c1", "note": "(stereo not drawn) [Compound 2322, N-[(6-amino-2-pyridyl)sulfonyl]-5-(3-tert-butyl-5-methyl-phenyl)-2-(2,2,4-trimethylpyrrolidin-1-yl)pyridine-3-carboxamide]", "EC30": "< 3000"},
      {"compound": "C[C@@H]1CN(c2nc(-c3cccc(F)c3O)ccc2C(=O)NS(=O)(=O)c2cccc(N)n2)C(C)(C)C1", "note": "[Compound 2386, N-[(6-amino-2-pyridyl)sulfonyl]-6-(3-fluoro-2-hydroxy-phenyl)-2-[(4S)-2,2,4-trimethylpyrrolidin-1-yl]pyridine-3-carboxamide]", "EC30": "< 3000"},
      {"compound": "C[C@@H]1CN(c2nc(-c3cc(F)c(F)cc3F)ccc2C(=O)NS(=O)(=O)c2cccnc2N)C(C)(C)C1", "note": "[Compound 2035, N-[(2-amino-3-pyridyl)sulfonyl]-6-(2,4,5-trifluorophenyl)-2-[(4S)-2,2,4-trimethylpyrrolidin-1-yl]pyridine-3-carboxamide]", "EC30": "< 3000"},
      {"compound": "CC1CN(c2ncccc2C(=O)NS(=O)(=O)c2cccc(OCC(C)C3CCCCC3)n2)C(C)(C)C1", "note": "(stereo not drawn) [Compound 2019, N—[[6-(2-cyclohexylpropoxy)-2-pyridyl]sulfonyl]-2-(2,2,4-trimethylpyrrolidin-1-yl)pyridine-3-carboxamide]", "EC30": "< 3000"},
      {"compound": "CC1CN(c2ncccc2C(=O)NS(=O)(=O)c2cccc(OCc3cccc(N(C)C)c3)n2)C(C)(C)C1", "note": "(stereo not drawn) [Compound 2012, N—[[6-[[3-(dimethylamino)phenyl]methoxy]-2-pyridyl]sulfonyl]-2-(2,2,4-trimethylpyrrolidin-1-yl)pyridine-3-carboxamide]", "EC30": "< 3000"},
      {"compound": "CC1CN(c2ncccc2C(=O)NS(=O)(=O)c2cccc(N3CCC[C@@H]3C(=O)OC(C)(C)C)n2)C(C)(C)C1", "note": "(stereo partly drawn) [Compound 2536, tert-butyl (2R)-1-[6-[[2-(2,2,4-trimethylpyrrolidin-1-yl)pyridine-3-carbonyl]sulfamoyl]-2-pyridyl]pyrrolidine-2-carboxylate]", "EC30": "< 3000"},
      {"compound": "C[C@@H]1CN(c2nc(-c3cccc4[nH]ccc34)ccc2C(=O)NS(=O)(=O)c2cccnc2N)C(C)(C)C1", "note": "[Compound 2478, N-[(2-amino-3-pyridyl)sulfonyl]-6-(1H-indol-4-yl)-2-[(4S)-2,2,4-trimethylpyrrolidin-1-yl]pyridine-3-carboxamide]", "EC30": "< 3000"},
      {"compound": "C[C@@H]1CN(c2nc(-c3cc(F)ccc3O)ccc2C(=O)NS(=O)(=O)c2ccc[nH]c2=O)C(C)(C)C1", "note": "[Compound 2295, 6-(5-fluoro-2-hydroxy-phenyl)-N-[(2-oxo-1H-pyridin-3-yl)sulfonyl]-2-[(4S)-2,2,4-trimethylpyrrolidin-1-yl]pyridine-3-carboxamide]", "EC30": "3000 to 10000"},
      {"compound": "COc1ccc(-c2ccc(C(=O)NS(=O)(=O)c3ccc[nH]c3=O)c(N3C[C@@H](C)CC3(C)C)n2)cc1C", "note": "[Compound 2369, 6-(4-methoxy-3-methyl-phenyl)-N-[(2-oxo-1H-pyridin-3-yl)sulfonyl]-2-[(4S)-2,2,4-trimethylpyrrolidin-1-yl]pyridine-3-carboxamide]", "EC30": "< 3000"}
    ]},
    {"molecular_target": "T1, F508del", "assay": "Protocol 2: FRET membrane potential optical assay (VIPR), identification of correction compounds", "type": "cell-based", "conditions": "Table 3; compounds of Table 1 as modulators of CFTR activity; protocol not stated", "method_in_brief": "as §1", "values": [
      {"compound": "CC(c1ccccc1)c1nc(C(C)(C)C)ccc1C(=O)NS(=O)(=O)c1cccc(N)c1", "note": "(stereo not drawn) [Compound 271, N-(3-aminophenyl)sulfonyl-6-tert-butyl-2-(1-phenylethyl)pyridine-3-carboxamide]", "EC30": "+++ (“+++” means <3 uM)"},
      {"compound": "CC(C)(C)c1ccc(C(=O)NS(=O)(=O)c2cccc(N)c2)c(-c2ccc(C(F)(F)F)cc2)n1", "note": "[Compound 129, N-(3-aminophenyl)sulfonyl-6-tert-butyl-2-[4-(trifluoromethyl)phenyl]pyridine-3-carboxamide]", "EC30": "++ (“++” means between 3 uM and 10 uM)"},
      {"compound": "CCOc1ccc(-c2ccc(C(=O)NS(=O)(=O)c3cccc(N)n3)c(-c3ccc(C)cc3)n2)cc1", "note": "[Compound 409, N-[(6-amino-2-pyridyl)sulfonyl]-6-(4-ethoxyphenyl)-2-(p-tolyl)pyridine-3-carboxamide]", "EC30": "+ (“+” means greater than 10 uM)"},
      {"compound": "Cc1ccc(C(=O)NS(=O)(=O)c2cccc(N)n2)c(N2CCC[C@@H](c3ccccc3)C2)n1", "note": "[Compound 532, N-[(6-amino-2-pyridyl)sulfonyl]-6-methyl-2-[(3S)-3-phenyl-1-piperidyl]pyridine-3-carboxamide]", "EC30": "++ (“++” means between 3 uM and 10 uM)"},
      {"compound": "CCCOc1cc(-c2ccc(C(=O)NS(=O)(=O)c3cccc(N)n3)c(Oc3c(C)cc(C)cc3C)n2)ccc1Cl", "note": "[Compound 535, N-[(6-amino-2-pyridyl)sulfonyl]-6-(4-chloro-3-propoxy-phenyl)-2-(2,4,6-trimethylphenoxy)pyridine-3-carboxamide]", "EC30": "+++ (“+++” means <3 uM)"},
      {"compound": "Cc1cc(C)c(Cn2c(C(=O)NS(=O)(=O)c3ccccc3)cc3c(C)cccc32)c(C)c1", "note": "[Compound 143, N-(benzenesulfonyl)-4-methyl-1-[(2,4,6-trimethylphenyl)methyl]indole-2-carboxamide]", "EC30": "+++ (“+++” means <3 uM)"},
      {"compound": "Cc1cc(C)c(Oc2nc(-c3cccc(CN4CCOCC4)c3)ccc2C(=O)NS(=O)(=O)c2cccc(N)n2)c(C)c1", "note": "[Compound 465, N-[(6-amino-2-pyridyl)sulfonyl]-6-[3-(morpholinomethyl)phenyl]-2-(2,4,6-trimethylphenoxy)pyridine-3-carboxamide]", "EC30": "++ (“++” means between 3 uM and 10 uM)"},
      {"compound": "COc1cc(F)ccc1-c1ccc(C(=O)NS(=O)(=O)c2ccc[nH]c2=O)c(Oc2c(C)cc(C)cc2C)n1", "note": "[Compound 608, 6-(4-fluoro-2-methoxy-phenyl)-N-[(2-oxo-1H-pyridin-3-yl)sulfonyl]-2-(2,4,6-trimethylphenoxy)pyridine-3-carboxamide]", "EC30": "++ (“++” means between 3 uM and 10 uM)"},
      {"compound": "CC1CC(C)N(c2nc(-c3ccc(OC(C)C)nc3)ccc2C(=O)NS(=O)(=O)c2cccc(N)n2)C1", "note": "(stereo not drawn) [Compound 689, N-[(6-amino-2-pyridyl)sulfonyl]-2-(2,4-dimethylpyrrolidin-1-yl)-6-(6-isopropoxy-3-pyridyl)pyridine-3-carboxamide]", "EC30": "+++ (“+++” means <3 uM)"},
      {"compound": "Cc1ccc(-n2c(C(=O)NS(=O)(=O)c3cccc(N)n3)cc3cc(C)ccc32)cc1", "note": "[Compound 653, N-[(6-amino-2-pyridyl)sulfonyl]-5-methyl-1-(p-tolyl)indole-2-carboxamide]", "EC30": "+ (“+” means greater than 10 uM)"},
      {"compound": "CNc1cccc(S(=O)(=O)NC(=O)c2ccc(C)nc2Oc2c(C)cc(C)cc2C)n1", "note": "[Compound 646, 6-methyl-N-[[6-(methylamino)-2-pyridyl]sulfonyl]-2-(2,4,6-trimethylphenoxy)pyridine-3-carboxamide]", "EC30": "++ (“++” means between 3 uM and 10 uM)"},
      {"compound": "CCOc1ccc(-c2ccc(C(=O)NS(=O)(=O)c3ccn[nH]3)c(N3CCC(C)CC3)n2)cc1", "note": "[Compound 445, 6-(4-ethoxyphenyl)-2-(4-methyl-1-piperidyl)-N-(1H-pyrazol-5-ylsulfonyl)pyridine-3-carboxamide]", "EC30": "+ (“+” means greater than 10 uM)"},
      {"compound": "CC(C)COc1cc(F)cc(-c2ccc(C(=O)NS(=O)(=O)c3cccc(N)n3)c(N3CC=CC3)n2)c1", "note": "[Compound 453, N-[(6-amino-2-pyridyl)sulfonyl]-2-(2,5-dihydropyrrol-1-yl)-6-(3-fluoro-5-isobutoxy-phenyl)pyridine-3-carboxamide]", "EC30": "+++ (“+++” means <3 uM)"},
      {"compound": "Cc1ccc(-c2nc(C(C)(C)C)ccc2C(=O)NS(=O)(=O)c2ccc(C#N)cc2)cc1", "note": "[Compound 288, 6-tert-butyl-N-(4-cyanophenyl)sulfonyl-2-(p-tolyl)pyridine-3-carboxamide]", "EC30": "+++ (“+++” means <3 uM)"}
    ]}
  ]
}
